Key:
souris = assay: Acute toxicity, oral administration in mice (DL0); assay type: in vivo; details: maximal dose causing no mortality in 8 days, mouse
From the text: On a évalué les doses létales DLO des différents composés testés après administration par voie orale chez la souris.
On appelle DLO la dose maximale ne provoquant aucune mortalité en 8 jours.

[1] = biological target: récepteurs des benzodiazépines; assay: Affinity for benzodiazepine receptors (3H diazepam binding, rat cortex membranes); set-up: species or system rats; details: concentration inhibiting 50 % of specific binding of 3H diazepam (10^-9M), 30 minutes at 0°C, read-out: C. I. 50 (the source's name)
Procedure: La technique est inspirée de celle de Möhler et Okada : Science, Vol 198 p.849-851 (1977).
On homogénéise au vingtième (poids/volume) dans le sucrose 0,32 M, les cortex prélevés sur des cerveaux de rats mâles pesant 150 g en moyenne. Après centrifugation de l'homogénat à 1000 g pendant 10 minutes à 0°C, le surnageant est centrifugé à 30 000 g pendant 20 minutes à 4°C. Le culot est mis en suspension dans 20 volumes de tampon Tris HCl 50mM pH 7,4 et centrigué à 30 000 g pendant 20 minutes à 4°C. Le nouveau culot obtenu est mis en suspension dans 50 ml de tampon Krebs Tris HCl pH 7,4.
On fait ensuite incuber pendant 30 minutes à 0°C, 2 ml de suspension en présence de 3H diazepam à la concentration 10^-9M : • i) seule, • ii) avec des concentrations croissantes du produit à tester ou, • iii) pour déterminer la fixation non spécifique, avec du diazepam non radioactif à la concentration 10^-6M.
Les suspensions incubées sont filtrées sur Whatman GF/C et les filtres sont lavés par deux fois 5 ml de tampon Krebs Tris HCl pH 7,4 à 0°C.
La radioactivité des filtres est mesurées par scintillation liquide.
L'activité du produit est exprimée en C. I. 50 : concentration inhibant 50 % de la liaison spécifique de ^3H diazepam.

[2] = tested on: taux sérique de corticostérone; assay: Action on serum corticosterone level after noise stress; assay type: in vivo; details: Rattus norvegicus; dose reducing by 50% the increase of serum corticosterone; oral route, 1 hour before stress; rats; read-out: DE50 (the source's name)
From the text: Des lots de 5 rats sont constitués la veille de l'essai et placés dans un pièce au calme. Les composés sont administrés par voie orale le lendemain entre 8 et 9 heures du matin. Une heure après, le stress est appliqué : il consiste à changer les animaux de cage, à les placer dans une pièce où un poste de radio fonctionne bruyamment (90 décibels), puis 1/2 heure plus tard, à leur faire une piqûre intrapéritonéale sans injection. Dix minutes après celle-ci, les rats sont anesthésiés a l'halothane et des échantillons de sang sont prélevés par décapitation. Les taux de corticostérone sérique sont alors déterminés.
Les résultats sont exprimés en DE50, c'est-à-dire en dose de composé testé qui réduit de 50% l'augmentation du taux de corticostérone sérique chez les animaux traités par rapport aux animaux témoins.

Compound | DL0 (souris) | IC50 [1] | ED50 [2]
O=c1c2cnc3ccc(Cl)cc3c2on1-c1ccccc1 [Exemple 7, 8-chloro 2-phényl isoxazolo (4,5-c) quinoléin-3-(2H)-one] | ≥ 100 mg/kg |  | 
O=c1c2cnc3ccc(C(F)(F)F)cc3c2on1-c1ccccc1 [Exemple 5, 8-trifluorométhyl 2-phényl isoxazolo (4,5-c) quinoléin-3-(2H)-one] | ≥ 200 mg/kg |  | 
O=c1c2cnc3ccccc3c2on1-c1ccccc1 [Exemple 1, 2-phényl isoxazolo (4,5-c) quinoléin-3 (2H) one] | ≥ 400 mg/kg | 120 nM | 
O=c1c2cnc3ccc(F)cc3c2on1-c1ccccc1 [Exemple 2, 8-fluoro 2-phénylisoxazolo (4,5-c) quinoléin-3-(2H)-one] | ≥ 400 mg/kg | 400 nM | < 50 mg/kg
COc1ccc2ncc3c(=O)n(-c4ccccc4)oc3c2c1 [Exemple 4, 8-méthoxy 2-phényl isoxazolo (4,5-c) quinoléin-3-(2H)-one] | 200 mg/kg | 2460 nM | < 100 mg/kg
COc1ccc2c(c1)ncc1c(=O)n(-c3ccccc3)oc12 [Exemple 3, 7-méthoxy 2-phénylisoxazolo (4,5-c) quinoléin-3-(2H)-one] | ≥ 200 mg/kg |  | 
